{"source": "patent US20200329698A1", "about": "“COMPOSITIONS FOR ORGAN GRAFT PRESERVATION AND METHODS OF USE” (Nobilis Therapeutics, Inc., priority 2019, published 2020)", "key": {"[1]": {"tested_on": "rat renal grafts from DBD donation or DCD donation", "conditions": "Dex 0.1 nM in UW at 4° C., cold ischemia 24 hr, vs vehicle", "protocol": "For in vivo fluorescence or DAB staining, 25-μm frozen lung sections were incubated with rabbit anti-Rip1 (1:200, SANTA CRUZ BIOTECHNOLOGY®), rabbit anti-Rip3 (1:200, SANTA CRUZ BIOTECHNOLOGY®), mouse anti-HMGB-1 (1:200, Abcam), Goat anti-TLR-4 (1:200, SANTA CRUZ BIOTECHNOLOGY®), rabbit anti-Nrf-2 (1:200, SANTA CRUZ BIOTECHNOLOGY®), mouse anti-SOD-1 (1:200, Abcam), mouse anti-NQO-1 (1:200 Abcam), rabbit anti-3-nitrotyrosine (1:200, Abcam) and rabbit anti-4-hydroxynonenal (1:200, Abcam) at 4° C. overnight. After washing with PBST, the slides were incubated with fluorochrome-conjugated secondary antibodies (MILLIPORE™, UK). For double-labelled immunofluorescence, lung samples were incubated with the first primary antibody overnight, followed by the first secondary antibody, and then the second primary antibody and the second secondary antibody. The slides were counterstained with nuclear dye DAPI and mounted with […]® Mounting Medium (Vector lab, USA). Sections were examined using an OLYMPUS™ (Watford, UK) BX4 microscope under constant exposure level. Immunofluorescence was quantified using ImageJ (National Institutes of Health, Maryland, USA) and the background was subtracted. Ten representative regions per section (in vivo) or field (in vitro) were randomly selected by an assessor blinded to the treatment groups. Values were then calculated as percentages of the mean value for naïve controls and expressed as percentage fluorescence intensity.\nLung alveolar cell death was detected by the in situ TUNEL assay (MILLIPORE™) according to the manufacturer's instructions. TUNEL nuclei were visualized by green FITC fluorescence.\n(§1) A rat renal graft machine perfusion model was developed, (see FIG. 1B) to simulate the renal graft preservation process. A series of experiments were conducted using the Fischer-to-Lewis allogeneic renal transplant model. Grafts from donors after brain death (DBD) or cardiac arrest (DCD) were used. The preserving solution was saturated with dexmedetomidine at 0.1 nM[32]. The grafts were extracted and then machine-perfused with UW solution at 4° C.[18] with a flow rate of 1.5-2 ml/min [39] for 4 hours and then kept in the preserving solution until 24 hours. Grafts were then transplanted into Lewis recipient immediately following extraction (cold-ischemia 0 hr), or stored in preservative solution for 24 hr (cold-ischemia 24 hr), The orthotopic renal transplantation into Lewis recipients was conducted and their contralateral kidneys were removed at the end of surgery. The recipient received cyclosporine A (5 mg/kg/day intramuscular injection per day) for 10 days to prevent acute immune rejection."}, "[2]": {"tested_on": "rat renal grafts from DBD donation or DCD donation", "protocol": "Rat renal transplantation was performed. Rat donor kidneys were transplanted orthotopically into recipients by using standard microvascular techniques. […] After the specified period of cold ischemia, the recipient's left kidney was extracted, and the donor renal vein was connected to the recipient renal vein through end-to-end anastomosis. The arterial anastomosis between the donor aortic patch was connected to the recipient aorta in an end-to-side manner. Urinary reconstruction was performed by ureter-to-bladder anastomosis. The total surgical ischemia time was restricted to <45 min. The contralateral kidney was removed immediately after engraftment.\nTumor necrosis factor-α (TNF-α) in the culture medium were detected by ELISA (Human TNF-α ELISA kits, INVITROGEN®, UK). Rat lung tissue and serum TNF-α were measured by ELISA (Rat TNF-α ELISA kits, INVITROGEN®, UK).\nMTS was performed on paraffin-embedded tissue according to the manufacturer's instructions (MTS kit; SIGMA-ALDRICH®, Ltd., Poole, UK). The amount of collagen deposition (percentage of MTS-stained area) was then digitally quantified with ImageJ software (U.S. National Institutes of Health, Bethesda, Md., USA).\nBlood samples were collected when the animals were euthanized. After centrifugation, serum urea and creatinine concentrations were measured with an AU2700 analyzer (OLYMPUS).\nas §1\nWith respect to FIGS. 4A-4J, Fischer rat renal grafts from DBD donation or DCD donation were stored in UW preservative solution at 4° C., saturated with DEX for up to 24 hrs (Cold ischemia CI 24 hr), grafts harvested from donor (cold ischemia CI 0 hr) serves as control. (A and B) Serum creatinine and urea concentration were analyzed 24 hours after transplantation (n=6). (C and D) Tissue cytokine TNF-α and IL-1β concentration was assessed by ELISA. (E) TUNEL staining of renal tubules in renal cortices 24 hours after transplantation. Scale bar=50 μm. In DCD grafts, Infiltrated CD68+ macrophages (Red fluoresce; F) and renal fibrosis (blue MTS staining; G) on day 8 after transplantation were assessed. In both DCD and DBD grafts, (H) Analysis of the percentage of TUNEL+ tubular cells in renal cortices. (I) The number of CD68+ macrophage, and (J) the area of MTS staining. Data is expressed as mean±SD (n=6). […] CI: cold ischemia, Vh: Vehicle, Dex: Dexmedetomidine."}, "[3]": {"tested_on": "ex vivo renal grafts from brain death or cardiac arrest donors", "experiment": "Rat hypothermic machine perfusion model", "conditions": "exposure of ex vivo grafts prior to engraftment"}, "[4]": {"tested_on": "JAK/STAT signaling pathway", "conditions": "cited from earlier work"}, "[5]": {"conditions": "after transplantation, graft stored with Dex 0.1 nM, CI 24 hr"}, "[6]": {"conditions": "day 16 after surgery, graft stored with Dex 0.1 nM"}}}
{"compound": "Cc1cccc([C@H](C)c2cnc[nH]2)c1C", "note": "[Dexmedetomidine]", "values": [{"measurement": "Heme oxygenase 1 (HO-1) expression, immunofluorescence", "setting": "[1]", "value": "significantly increased"}, {"measurement": "Nrf2 expression, immunofluorescence", "setting": "[1]", "value": "significantly increased"}, {"measurement": "necroptosis (expression of MLKL)", "setting": "[1]", "value": "suppressed necroptosis"}, {"measurement": "renal graft architecture / morphology (H&E staining, injury scoring)", "setting": "[1]", "value": "preserved the renal graft architecture"}, {"measurement": "tissue injury in the renal cortex (TUNEL cell death staining)", "setting": "[1]", "value": "reduced tissue injury in the renal cortex"}, {"measurement": "cell death (number of TUNEL+ cells) in renal cortices", "setting": "[2]; 24 hours after transplantation, graft stored with Dex 0.1 nM", "value": "reduced"}, {"measurement": "tissue level of cytokine IL-1β (ELISA)", "setting": "[2]; [5]", "value": "reduced tissue level"}, {"measurement": "tissue level of cytokine TNF-α (ELISA)", "setting": "[2]; [5]", "value": "reduced tissue level"}, {"measurement": "renal functional recovery (serum creatinine and urea)", "setting": "[2]; day 1 (24 hours) after transplantation, graft stored with Dex 0.1 nM, CI 24 hr", "value": "induced a quick functional recovery"}, {"measurement": "macrophage infiltration (number of CD68+ cells)", "setting": "[2]; [6]", "value": "attenuated"}, {"measurement": "renal fibrosis (MTS staining)", "setting": "[2]; [6]", "value": "attenuated"}, {"measurement": "protection in ex vivo renal allograft from cardiac arrest donation", "setting": "[2]; overall conclusion", "value": "conferred significant protection"}, {"measurement": "organ graft injury, histologically and functionally", "setting": "[3]", "value": "prevent organ graft injury"}, {"measurement": "level of p-JAK2 and its downstream effectors p-STAT1 and STATS", "setting": "[4]; mice, warm ischemia-reperfusion injury", "value": "significant reduced level"}, {"measurement": "long-term renal function", "setting": "[4]; mouse, in vivo", "value": "long-term functional renoprotection"}, {"measurement": "survival", "setting": "[4]; mouse, in vivo", "value": "increased survival"}, {"measurement": "tubular architecture and function following renal ischemia", "setting": "[4]; pre- or post-treatment", "value": "improved tubular architecture and function"}]}
